Data as given in patent US20120263762A1, “STABILISED PARTICLES COMPRISING 5-METHYL-(6S)-TETRAHYDROFOLATE” (BAYER PHARMA AKTIENGESELLSCHAFT, priority 2009, published 2012).

Test: Particle size distribution of particles (laser diffraction, volume distribution)
Type: physicochemical
Settings: micronized active ingredient before coating
Excerpt: When used herein, the term “d90 particle size” is intended to mean that the particle size distribution is so that at least 90% of the particles have a particle diameter of less than the specified value, calculated from the volume distribution curve under the presumption of spherical particles. In a similar way, the term “d50 particle size” is intended to mean that the particle size distribution is so that at least 50% of the particles have a particle diameter of less than the specified value, calculated from the volume distribution curve under the presumption of spherical particles.
Therefore, it is important to note that whenever the terms “particle size”, “particle size distribution”, “particle diameter”, “d90”, “d50”, etc., are used herein it should be understood that the specific values or ranges used in connection therewith are always meant to be determined from the volume distribution curve under the presumption of spherical particles. The particle size distribution may be determined by various techniques, e.g. laser diffraction, and will be known to the person skilled in the art. […] The particle size distribution of the particles, when incorporated in a wafer, may be determined by dissolving the film forming matrix, separation of the protected particles, and drying the protected particles. […]

## C[C@]12CCC(=O)C=C1[C@@H]1C[C@@H]1[C@H]1[C@@H]3[C@@H]4C[C@@H]4[C@@]4(CCC(=O)O4)[C@@]3(C)CC[C@@H]12 [drospirenone]
  d50: 2.2 μm
  d90: 4.8 μm
